For this test, the target named is T1, human H3R (Homo sapiens, UniProt Q9Y5N1).
T1 construct: expressed in transfected cells; host or cells: CHO cells
In words: Binding assay with 3H-(R)α-methylhistamine (competition binding). To be noted: competition binding vs 3H(R)α-methylhistamine (1 nM), membrane of the human H3R-CHO cell line; Ki calculated from IC50 by Cheng-Prusoff equation. The protocol: Binding Assay with ^3H—(R)α-methylhistamine
Saturation binding experiments were performed using HR3-CHO membranes prepared as described in Takahashi, K, Tokita, S., Kotani, H. (2003) J. Pharmacol. Exp. Therapeutics 307, 213-218.
An appropriate amount of membrane (60 to 80 μg protein/well) was incubated with increasing concentrations of ^3H(R)α-Methylhistamine di-hydrochloride (0.10 to 10 nM). Non specific binding was determined using a 200 fold excess of cold (R)α-methyl-histamine dihydrobromide (500 nM final concentration). The incubation was carried out at room temperature (in deep-well plates shaking for three hours). The final volume in each well was 250 μl. The incubation was followed by rapid filtration on GF/B filters (pre-soaked with 100 μl of 0.5% PEI in Tris 50 mM shaking at 200 rpm for two hours). The filtration was made using a cell-harvester and the filter plates were then washed five times with ice cold washing buffer containing 0.5 M NaCl. After harvesting, the plates were dried at 55° C. for 60 min, then scintillation fluid (Microscint 40, 40 microl in each well) was added and the amount of radioactivity on the filter was determined in Packard top-counter after shaking the plates for two hours at 200 rpm at room temperature.
Binding Buffer: 50 mM Tris-HCl pH 7.4 and 5 mM MgCl2×6H2O pH 7.4. Washing Buffer: 50 mM Tris-HCl pH 7.4 and 5 mM MgCl2×6H2O and 0.5 M NaCl pH 7.4.
Indirect measurement of affinity of H3R inverse agonists: twelve increasing concentrations (ranging from 10 μM to 0.3 nM) of the selected compounds were always tested in competition binding experiments using membrane of the human H3R—CHO cell line. […]
All compounds were tested at a single concentration in duplicate. […] Ki's were calculated from IC50 based on Cheng-Prusoff equation (Cheng, Y, Prusoff, W H (1973) Biochem Pharmacol 22, 3099-3108): Ki=IC50/[1+D/Kd] wherein D is the concentration of the radioligand and Kd is the binding constant for the radioligand binding to the receptor under the conditions used in the competition experiment.

The structures appear in SMILES notation.

T1 sequence (Q9Y5N1 whole entry): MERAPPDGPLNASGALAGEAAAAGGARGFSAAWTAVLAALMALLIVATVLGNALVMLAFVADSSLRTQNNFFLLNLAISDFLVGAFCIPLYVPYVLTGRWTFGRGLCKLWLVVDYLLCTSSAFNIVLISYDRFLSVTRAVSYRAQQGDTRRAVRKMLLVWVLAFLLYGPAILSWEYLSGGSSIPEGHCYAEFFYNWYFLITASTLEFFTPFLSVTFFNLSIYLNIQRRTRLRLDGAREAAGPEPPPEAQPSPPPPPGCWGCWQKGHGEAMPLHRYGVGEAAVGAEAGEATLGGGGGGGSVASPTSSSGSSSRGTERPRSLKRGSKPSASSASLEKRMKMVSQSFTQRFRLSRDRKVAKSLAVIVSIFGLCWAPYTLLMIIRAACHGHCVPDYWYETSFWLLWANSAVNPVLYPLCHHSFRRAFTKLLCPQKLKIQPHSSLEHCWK

Regarding `CC(C)N1CCN(C(=O)c2ccc3c(ccn3CCCN3CCCCC3C)c2)CC1` (stereo not drawn) [Example 59, (4-isopropyl-piperazin-1-yl)-{1-[3-(2-methyl-piperidin-1-yl)-propyl]-1H-indol-5-yl}-methanone], the inhibition constant Ki was 0.0154 µM.

`CCN1CCC(n2ccc3cc(C(=O)N4CCN(C5CCCC5)CC4)ccc32)C1` (stereo not drawn) [Example 6, (4-cyclopentyl-piperazin-1-yl)-[1-(1-ethyl-pyrrolidin-3-yl)-1H-indol-5-yl]-methanone]: the inhibitory constant (Ki) is 0.0059 µM.

With `O=C(c1ccc2c(ccn2CC2CCCN(Cc3ccccc3)C2)c1)N1CCN(C2CCCC2)CC1` (stereo not drawn) [Example 11, [1-(1-benzyl-piperidin-3-ylmethyl)-1H-indol-5-yl]-(4-cyclopentyl-piperazin-1-yl)-methanone], the Ki was 0.0121 µM.

Usually Ki stands for the dissociation constant of the complex between target and ligand, obtained from inhibition or displacement.

The record behind these values is US7432255B2, “1H-indol-5-yl-piperazin-1-yl-methanone derivatives” (Hoffmann-La Roche Inc., priority 2006, dated 2008).
